# Columns and labels:
# Experiment in all cases: IO staining of colonies of beta-D-galactosidase positive/negative bacteria (Table IVb)
# Type in all cases: cell-based
# Salmonella bongori 81 = settings: Salmonella bongori strain 81, b-gal +; 24 h on Nutrient Agar, 150 mg/l indicator, 100 mg/l IPTG
# Salmonella illa 73 = settings: Salmonella illa strain 73, b-gal +; 24 h on Nutrient Agar, 150 mg/l indicator, 100 mg/l IPTG
# Citrobacter freundii 181 = settings: Citrobacter freundii strain 181, b-gal +; 24 h on Nutrient Agar, 150 mg/l indicator, 100 mg/l IPTG
# Staphylococcus aureus 2 = settings: Staphylococcus aureus strain 2, b-gal −, 24 h on Nutrient Agar, 150 mg/l indicator, 100 mg/l IPTG; for C: Color of colonies: footnote 2: S. aureus natural color
# [1] = test system: Escherichia coli (O157:H7) 60; settings: Escherichia coli (O157:H7) strain 60, b-gal +; 24 h on Nutrient Agar, 150 mg/l indicator, 100 mg/l IPTG
# Shigella sonnei 133 = settings: Shigella sonnei strain 133, b-gal +/−; 24 h on Nutrient Agar, 150 mg/l indicator, 100 mg/l IPTG
# [2] = test system: Listeria monocytogenes (4b) 290; settings: Listeria monocytogenes (4b) strain 290, b-gal −; 24 h on Nutrient Agar, 150 mg/l indicator, 100 mg/l IPTG; for C: Color of colonies: key: −: absent; +/−: weak; +: strong; ++: very strong; for F: Fluorescence of colonies: key: −: absent; +/−: weak; +: strong; ++: very strong
# Escherichia coli 270 = settings: Escherichia coli strain 270, b-gal +; 24 h on Nutrient Agar, 150 mg/l indicator, 100 mg/l IPTG
# Bacillus subtilis 65 = settings: Bacillus subtilis strain 65, b-gal −; 24 h on Nutrient Agar, 150 mg/l indicator, 100 mg/l IPTG
# Escherichia coli 61 = settings: Escherichia coli strain 61, b-gal +; 24 h on Nutrient Agar, 150 mg/l indicator, 100 mg/l IPTG
# Enterobacter cloacae 245 = settings: Enterobacter cloacae strain 245, b-gal +; 24 h on Nutrient Agar, 150 mg/l indicator, 100 mg/l IPTG
# [3] = test system: Staphylococcus intermedius 31; settings: Staphylococcus intermedius strain 31, b-gal +; 24 h on Nutrient Agar, 150 mg/l indicator, 100 mg/l IPTG
# Serratia marcescens 40 = settings: Serratia marcescens strain 40, b-gal +; 24 h on Nutrient Agar, 150 mg/l indicator, 100 mg/l IPTG
# [4] = test system: Pseudomonas aeruginosa 168; settings: Pseudomonas aeruginosa strain 168, b-gal −, 24 h on Nutrient Agar, 150 mg/l indicator, 100 mg/l IPTG; for F: Fluorescence of colonies: footnote 1: blue autofluorescence; for C: Color of colonies: key: −: absent; +/−: weak; +: strong; ++: very strong; for G: Growth of colonies: key: −: absent; +/−: weak; +: strong; ++: very strong
# Shigella boydii 135 = settings: Shigella boydii strain 135, b-gal −; 24 h on Nutrient Agar, 150 mg/l indicator, 100 mg/l IPTG
# [5] = test system: Salmonella enteritidis 43; settings: Salmonella enteritidis strain 43, b-gal −; 24 h on Nutrient Agar, 150 mg/l indicator, 100 mg/l IPTG; note: key: −: absent; +/−: weak; +: strong; ++: very strong
# [6] = test system: Staphylococcus saprophyticus 273; settings: Staphylococcus saprophyticus strain 273, b-gal +; 24 h on Nutrient Agar, 150 mg/l indicator, 100 mg/l IPTG; for G: Growth of colonies: key: −: absent; +/−: weak; +: strong; ++: very strong
# [7] = test system: Enterobacter aerogenes 242; settings: Enterobacter aerogenes strain 242, b-gal +; 24 h on Nutrient Agar, 150 mg/l indicator, 100 mg/l IPTG; for C: Color of colonies: key: −: absent; +/−: weak; +: strong; ++: very strong; for G: Growth of colonies: key: −: absent; +/−: weak; +: strong; ++: very strong
# [8] = test system: Streptococcus agalactiae 195; settings: Streptococcus agalactiae strain 195, b-gal −; 24 h on Nutrient Agar, 150 mg/l indicator, 100 mg/l IPTG; for C: Color of colonies: key: −: absent; +/−: weak; +: strong; ++: very strong; for F: Fluorescence of colonies: key: −: absent; +/−: weak; +: strong; ++: very strong
# [9] = test system: Yersinia enterocolitica 175; settings: Yersinia enterocolitica strain 175, b-gal +/−; 24 h on Nutrient Agar, 150 mg/l indicator, 100 mg/l IPTG; for G: Growth of colonies: key: −: absent; +/−: weak; +: strong; ++: very strong
# [10] = test system: Shigella dysenteriae Serovar 1 131; settings: Shigella dysenteriae Serovar 1 strain 131, b-gal +/−; 24 h on Nutrient Agar, 150 mg/l indicator, 100 mg/l IPTG
compound,measurement,setting,value
"5-Bromo-4-chloro-1H-indol-3-yl-beta-D-galactopyranoside [Indicator I4a, reference compound]",C: Color of colonies,Salmonella bongori 81,+/−
same,F: Fluorescence of colonies,Salmonella bongori 81,−
same,G: Growth of colonies,Salmonella bongori 81,+
same,C: Color of colonies,Salmonella illa 73,−
same,F: Fluorescence of colonies,Salmonella illa 73,−
same,G: Growth of colonies,Salmonella illa 73,+
same,C: Color of colonies,Citrobacter freundii 181,+
same,F: Fluorescence of colonies,Citrobacter freundii 181,−
same,G: Growth of colonies,Citrobacter freundii 181,+
same,F: Fluorescence of colonies,Staphylococcus aureus 2,−
same,G: Growth of colonies,Staphylococcus aureus 2,+
same,C: Color of colonies,Staphylococcus aureus 2,y^2
same,C: Color of colonies,[1],++
same,F: Fluorescence of colonies,[1],−
same,G: Growth of colonies,[1],+
same,C: Color of colonies,Shigella sonnei 133,+
same,F: Fluorescence of colonies,Shigella sonnei 133,−
same,G: Growth of colonies,Shigella sonnei 133,+
same,C: Color of colonies,[2],−
same,F: Fluorescence of colonies,[2],−
same,G: Growth of colonies,[2],+/−
same,C: Color of colonies,Escherichia coli 270,++
same,F: Fluorescence of colonies,Escherichia coli 270,−
same,G: Growth of colonies,Escherichia coli 270,+
same,C: Color of colonies,Bacillus subtilis 65,−
same,F: Fluorescence of colonies,Bacillus subtilis 65,−
same,G: Growth of colonies,Bacillus subtilis 65,+
same,C: Color of colonies,Escherichia coli 61,++
same,F: Fluorescence of colonies,Escherichia coli 61,−
same,G: Growth of colonies,Escherichia coli 61,+
same,C: Color of colonies,Enterobacter cloacae 245,++
same,F: Fluorescence of colonies,Enterobacter cloacae 245,−
same,G: Growth of colonies,Enterobacter cloacae 245,+
same,C: Color of colonies,[3],+
same,F: Fluorescence of colonies,[3],−
same,G: Growth of colonies,[3],+
same,C: Color of colonies,Serratia marcescens 40,+
same,F: Fluorescence of colonies,Serratia marcescens 40,−
same,G: Growth of colonies,Serratia marcescens 40,+
same,C: Color of colonies,[4],−
same,G: Growth of colonies,[4],+
same,F: Fluorescence of colonies,[4],+^1
same,C: Color of colonies,Shigella boydii 135,−
same,F: Fluorescence of colonies,Shigella boydii 135,−
same,G: Growth of colonies,Shigella boydii 135,+
same,C: Color of colonies,[5],−
same,F: Fluorescence of colonies,[5],−
same,G: Growth of colonies,[5],+
same,C: Color of colonies,[6],+
same,F: Fluorescence of colonies,[6],−
same,G: Growth of colonies,[6],+
same,C: Color of colonies,[7],++
same,F: Fluorescence of colonies,[7],−
same,G: Growth of colonies,[7],+
same,C: Color of colonies,[8],−
same,F: Fluorescence of colonies,[8],−
same,G: Growth of colonies,[8],+/−
same,C: Color of colonies,[9],−
same,F: Fluorescence of colonies,[9],−
same,G: Growth of colonies,[9],+
same,C: Color of colonies,[10],−
same,F: Fluorescence of colonies,[10],−
same,G: Growth of colonies,[10],+
"O=C(c1ccccc1)c1ccccc1-n1cc(O[C@@H]2O[C@H](CO)[C@H](O)[C@H](O)[C@H]2O)c2ccc(Cl)cc21 [Indicator I21a, 1-(2-Benzoylphenyl)-6-chloro-1H-indol-3-yl-beta-D-galactopyranoside]",C: Color of colonies,Salmonella bongori 81,+/−
same,F: Fluorescence of colonies,Salmonella bongori 81,+/−
same,G: Growth of colonies,Salmonella bongori 81,+
same,C: Color of colonies,Salmonella illa 73,−
same,F: Fluorescence of colonies,Salmonella illa 73,−
same,G: Growth of colonies,Salmonella illa 73,+
same,C: Color of colonies,Citrobacter freundii 181,+
same,F: Fluorescence of colonies,Citrobacter freundii 181,+
same,G: Growth of colonies,Citrobacter freundii 181,+
same,F: Fluorescence of colonies,Staphylococcus aureus 2,−
same,G: Growth of colonies,Staphylococcus aureus 2,+/−
same,C: Color of colonies,Staphylococcus aureus 2,−
same,C: Color of colonies,[1],+
same,F: Fluorescence of colonies,[1],+
same,G: Growth of colonies,[1],+
same,C: Color of colonies,Shigella sonnei 133,+
same,F: Fluorescence of colonies,Shigella sonnei 133,+
same,G: Growth of colonies,Shigella sonnei 133,+
same,C: Color of colonies,[2],−
same,F: Fluorescence of colonies,[2],−
same,G: Growth of colonies,[2],+/−
same,C: Color of colonies,Escherichia coli 270,++
same,F: Fluorescence of colonies,Escherichia coli 270,+
same,G: Growth of colonies,Escherichia coli 270,+
same,C: Color of colonies,Bacillus subtilis 65,−
same,F: Fluorescence of colonies,Bacillus subtilis 65,−
same,G: Growth of colonies,Bacillus subtilis 65,+/−
same,C: Color of colonies,Escherichia coli 61,+
same,F: Fluorescence of colonies,Escherichia coli 61,+
same,G: Growth of colonies,Escherichia coli 61,+
same,C: Color of colonies,Enterobacter cloacae 245,+
same,F: Fluorescence of colonies,Enterobacter cloacae 245,+
same,G: Growth of colonies,Enterobacter cloacae 245,+
same,C: Color of colonies,[3],+/−
same,F: Fluorescence of colonies,[3],+/−
same,G: Growth of colonies,[3],+/−
same,C: Color of colonies,Serratia marcescens 40,++
same,F: Fluorescence of colonies,Serratia marcescens 40,+
same,G: Growth of colonies,Serratia marcescens 40,+
same,C: Color of colonies,[4],−
same,G: Growth of colonies,[4],+
same,F: Fluorescence of colonies,[4],+^1
same,C: Color of colonies,Shigella boydii 135,−
same,F: Fluorescence of colonies,Shigella boydii 135,−
same,G: Growth of colonies,Shigella boydii 135,+
same,C: Color of colonies,[5],−
same,F: Fluorescence of colonies,[5],−
same,G: Growth of colonies,[5],+
same,C: Color of colonies,[6],+
same,F: Fluorescence of colonies,[6],+
same,G: Growth of colonies,[6],+
same,C: Color of colonies,[7],+
same,F: Fluorescence of colonies,[7],+
same,G: Growth of colonies,[7],+
same,C: Color of colonies,[8],−
same,F: Fluorescence of colonies,[8],−
same,G: Growth of colonies,[8],+/−
same,C: Color of colonies,[9],−
same,F: Fluorescence of colonies,[9],+/−
same,G: Growth of colonies,[9],+
same,C: Color of colonies,[10],−
same,F: Fluorescence of colonies,[10],−
same,G: Growth of colonies,[10],+
